Assay results taken from patent US11185524B2 (Novus International, Inc., priority 2019, dated 2021).
Marks after values point to notes of the source that are not given here.

What was measured:
rumen microorganisms = experiment: In vitro evaluation of rumen protection: degradation by rumen microorganisms in rumen fluid incubation; assay type: in vitro ADME, Holstein steers (rumen fluid donors); settings: male, Holstein, cattle, 12 h
Experimental: Schematics of the HMTBa derivatives are presented below in Table. 1. Following the methodology of Patterson and Kung (J. Dairy Sci., 1988, vol. 71, pp. 3292-3301), fermentation substrate comprising casein, cellobiose, starch, pectin, and cellulose was added at a rate of 0.45 g to 250 mL fermentation flasks. HMTBa derivatives were randomly assigned to flasks and thoroughly mixed to ensure that all compounds were incorporated into the substrate. Methionine hydroxy analog (MHA), polymer encapsulated methionine (eMet) were also included as controls, as well as a blank. A total of 28 fermentation flasks were used, resulting in 4 replicates per treatment for each of the two experiments. Three cannulated Holstein steers were utilized as rumen fluid donors. Steers were housed on pasture, allowed to graze freely, and provided free choice supplement. Approximately 1000 mL of rumen fluid and a handful of rumen contents were obtained from each steer. Rumen fluid and contents were combined in pre-heated thermoses, transported to the lab, blended using a hand blender, and strained through 8 layers of cheese cloth. Combined rumen fluid was maintained under CO2 and thoroughly mixed. […] Due to variability associated with in vitro methodology, replicates were evaluated for similarity. […] Recovery of HMTBa or methionine was determined and expressed relative to initial amount of HMTBA or methionine (active) added. […]

[1] = in vivo

Free Active recovered (rumen microorganisms) | Ruminal undegradability (estimated ruminal stability) (rumen microorganisms) | HMTBa in plasma [1] | L-methionine in plasma [1] | Methionine equivalents in plasma (sum of L-methionine, D-methionine, and HMTBa) [1] | SMILES
439.6^c ppm | 56.64^c |  |  |  | CSCCC1OC(=O)C(CCSC)OC1=O (centres unmarked) [Cyclic Dimer, 3,6-bis(2-methylthio)ethyl-1,4-dioxane-2,5-dione]
 |  | 0.324^a μg/mL | 5.312^a μg/mL | 5.666^a μg/mL | CSCCC(O)C(=O)O (centres unmarked) [MHA, Methionine hydroxy analog]
